Converted amounts (≈) assume the structure as drawn. “And” between values parts separate entries of the source, which are not always exact repeats. Equal values may be shown once. Read-outs that look alike come from different tables or passages of the source.
What was measured:
[1] = tested on: fourth-instar larvae of R. ferrugineus; experiment: Topical application (contact) to fourth-instar larvae (probit LD50); type: in vivo, Rhynchophorus ferrugineus; conditions: after 1 day of treatment, 95% confidence limits in brackets
Procedure: (§1) Over the course of 40 days, an O. basilicum cell suspension was cultivated in this investigation, and then the extract was obtained. […] Long segments of sugarcane stem were employed in the insect breeding lab at King Faisal University’s Research and Training Center to raise adult R. ferrugineus larvae. For this experiment, we used a topical application technique with larvae stored at 4 °C for five minutes to test the extract’s activity. Using a hand-operated micro-applicator (Burkard Manufacturing Co., Ltd., Hertfordshire, UK, collected using a […] micro-syringe), extracts at escalating ratios (10 µL) were injected into the dorsal surface of the larvae (Ito Corp.; MS-N50, Shizuoka, Japan). Five larvae per box in a series of three replicates were fed on sugarcane stem pieces measuring 10 cm in length. The LD50 was calculated by measuring the percentage of dead larvae at 24, 48, 72, and 96 h following a topical application. The antifeedant impact was determined in adults by giving them 10 cm sugarcane stem segments cut in half longitudinally. Long strips of sugarcane stem (32 cm^2) were immersed in the previous serial extract and compound concentration (10 mL) for ten seconds before they were dried in ambient air using a plastic box. Each box included a new pair of larvae (a male and a female). Ten sets of each treatment were performed. Data on how well the subjects ate were evaluated at 24, 48, 72, and 96 h.
(§2) The tissue culture parameters were calculated quantitatively from three independent sets of samples, and the mean SD was used to describe the findings. Toxicity parameters were determined quantitatively using a 10-replicate sample, and means and standard deviations were used to present the data. The median dosage obtained from a dose–response regression was used to calculate the LC50 value. By analyzing the comparative growth rate vs. the crude extract logarithm using least squares regression, the range of LC50 was calculated with 95% confidence. A simple variance study was performed on the increased weight and enzymatic activity data (ANOVA). The distinction between the means was accomplished using the Student–Newman–Keuls (SNK) test. Additionally, SPSS version 25 was used to find p < 0.05 significant deviations from the mean.

AChE [2] = experiment: In vitro AChE inhibition, larval homogenate (Ellman); type: biochemical, Rhynchophorus ferrugineus; conditions: fourth-instar larvae preparation
Procedure: (§3) The R. ferrugineus were homogenized larvae in a buffer (sodium phosphate, 40 mM, and pH 7.4); then, sodium chloride (10 mM dissolved in 1% (w/v) triton X-100) was added. During centrifugation (Sigma 3–30 KS), the homogenate was chilled to 4 °C and spun at a speed of 5000 rpm (20 min). The supernatant was either immediately put into action for an enzymatic test or frozen and kept at […] for later use. Each test was repeated three times. The protein content was determined using the same protocol employed by Lowry with modification using protein extract (100 µL) combined with an alkaline copper solution and a Folin–Ciocalteu phenol reagent (2 mL and 200 µL, respectively). The intensity of the resulting blue hue was evaluated during 30 min of incubation at 25 °C. Using an ELISA plate reader and a BSA standard curve, we could calculate the protein concentration by analyzing the absorbance at 600 nm (Multiskan SkyHigh Microplate Spectrophotometer, Thermo Fisher Scientific, Waltham, MA, USA).
(§4) The enzyme AChE was assessed using a substrate of acetylthiocholine iodide and evaluated using 5,5′-dithiobis [2-nitrbenzoic acid] (DTNB), according to [94]. Each well contained a sodium phosphate buffer (140 µL) (pH: 8.0; 100 mM), DTNB (10 µL), extract (20 µL)/components at 1, 10, 50, 100, and 1000 µg/mL in DMSO and underwent 15 min of incubation at 25 °C. Acetylthiocholine (ATCh) was added to start the reaction (10 µL). The ATCh enzymatic hydrolysis produced a 5-thio-2-nitrobenzoate anion as a color (yellow) that was detected by measuring its wavelength, i.e., 412 nm, thereby allowing the researchers to track the rate of ATCh hydrolysis (15 min). Each response was performed three times on a microplate and examined using an ELISA plate reader to determine the 412 nm absorbance of the combination (Multiskan SkyHigh Microplate Spectrophotometer). The AChE-specific activity was measured as OD412/mg protein.h. based on observing the effect of raising the quantities of all of these compounds during the tests on the inhibition results, and the inhibitory concentration (IC50) was calculated. Then, a computer algorithm was used to determine the IC50 values (Version 9.01 of GraphPad Prism by Inc., 2020, San Diego, CA, USA).

ALPs [3] = experiment: In vitro ALP inhibition, larval homogenate; type: biochemical, Rhynchophorus ferrugineus; conditions: for IC50 ALPs in vitro: fourth-instar larvae preparation
Procedure: as §3
(§5) Activities of ACPs and ALPs were evaluated using a modified version of the Asakura technique. The ACP test required incubating 100 μL of crude enzyme in a buffer of 650 μL of sodium acetate (pH: 5.0; 50 mM with ACPs) or 250 μL of Tris–HCl (at 50 mM; pH: 8.0 with ALPs) and p-nitrophenyl phosphate (5.5 mM). For 30 min; the various mixes were kept at 37 °C for incubation. Thereafter, 500 μL of NaOH (0.5 N) stopped the reaction. Using an ELISA plate reader, we determined the mixture’s 415 nm absorbance value (Multiskan SkyHigh Microplate Spectrophotometer). The ACP- and ALP-specific activity was estimated as OD 415/mg protein·h.

ALPs [4] = experiment: In vivo ALP inhibition in treated fourth-instar larvae; parameters: species or system Rhynchophorus ferrugineus; conditions: fourth-instar larvae treated 24 h
Procedure: as §5
(§6) Each enzyme’s in vivo impact was measured after treating larvae with an extract or pure chemicals. An inhibitor-free test combination served as a negative control. We determined the absorbance of the enzymes throughout a spectrum of wavelengths using a rapid reader for ELISA plates (Multiskan SkyHigh Microplate Spectrophotometer). Extracts and pure chemicals were used to treat R. ferrugineus larvae at previous serial concentrations, and their AChE, ACP, ALP, and GABA-T activity was tested in vivo using the methods outlined above. Larvae spent a day on leaf disks treated with chemicals or extract.

ACPs [5] = experiment: In vivo ACP inhibition in treated fourth-instar larvae; parameters: species or system Rhynchophorus ferrugineus; conditions: fourth-instar larvae treated 24 h
Procedure: as §5, §6

AChE [6] = experiment: In vivo AChE inhibition in treated fourth-instar larvae; parameters: species or system Rhynchophorus ferrugineus; conditions: fourth-instar larvae treated 24 h
Procedure: as §4, §6

R. ferrugineus adults = experiment: Antifeedant/insecticidal test on adults with treated sugarcane stem (probit LC50); type: in vivo, Rhynchophorus ferrugineus; conditions: after 1 day of treatment, 95% confidence limits in brackets
Procedure: as §1, §2

ACPs [7] = experiment: In vitro ACP inhibition, larval homogenate; type: biochemical, Rhynchophorus ferrugineus; conditions: fourth-instar larvae preparation
Procedure: as §3, §5

GABA-T [8] = target: T1, GABA-T (Rhynchophorus ferrugineus, UniProt A0A834I2E4); experiment: In vivo GABA-T inhibition in treated fourth-instar larvae; conditions: fourth-instar larvae treated 24 h
T1 sequence (A0A834I2E4 28-494): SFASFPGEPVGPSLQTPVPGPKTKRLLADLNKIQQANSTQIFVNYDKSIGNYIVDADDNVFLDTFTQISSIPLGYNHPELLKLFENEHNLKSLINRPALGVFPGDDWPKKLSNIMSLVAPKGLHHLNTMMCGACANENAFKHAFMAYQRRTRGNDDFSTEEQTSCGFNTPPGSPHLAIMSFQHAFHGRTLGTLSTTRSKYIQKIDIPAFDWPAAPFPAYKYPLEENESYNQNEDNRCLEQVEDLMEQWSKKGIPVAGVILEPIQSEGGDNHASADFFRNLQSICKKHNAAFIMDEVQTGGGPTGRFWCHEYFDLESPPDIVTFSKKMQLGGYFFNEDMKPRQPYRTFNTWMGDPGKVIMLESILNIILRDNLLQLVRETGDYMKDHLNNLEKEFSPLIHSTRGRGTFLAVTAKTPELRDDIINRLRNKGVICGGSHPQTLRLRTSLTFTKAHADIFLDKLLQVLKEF
Procedure: The enzyme crude extract (25 μL) added to a solution included Tris-HCl, α-ketoglutarate, 2-mercaptoethanol, β-NAD, and GABA (50, 2, 20, and 3, respectively) at a volume of 1525 μL. Finally, 30 μL of tritonx100 ((1%, (v/v)) was added to the prior combination. We used 30 min of incubation at between 25 and 30 °C. Additionally, we used an ELISA plate reader to determine the absorbance of the combination at 340 nm (Multiskan SkyHigh Microplate Spectrophotometer). Specific activities of GABA-T were measured as OD 340/mg of protein·h.

GABA-T [9] = target: T1, GABA-T; experiment: In vitro GABA-T inhibition, larval homogenate; type: biochemical; conditions: fourth-instar larvae preparation, listed as salvianolic acid B
Procedure: The R. ferrugineus were homogenized larvae in a buffer (sodium phosphate, 40 mM, and pH 7.4); then, sodium chloride (10 mM dissolved in 1% (w/v) triton X-100) was added. During centrifugation (Sigma 3–30 KS), the homogenate was chilled to 4 °C and spun at a speed of 5000 rpm (20 min). The supernatant was either immediately put into action for an enzymatic test or frozen and kept at 20 °C for later use. […] The protein content was determined using the same protocol employed by Lowry with modification [93] using protein extract (100 µL) combined with an alkaline copper solution and a Folin–Ciocalteu phenol reagent (2 mL and 200 µL, respectively). The intensity of the resulting blue hue was evaluated during 30 min of incubation at 25 °C. Using an ELISA plate reader and a BSA standard curve, we could calculate the protein concentration by analyzing the absorbance at 600 nm (Multiskan SkyHigh Microplate Spectrophotometer, Thermo Fisher Scientific, Waltham, MA, USA).
The GABA-T activity was assessed with a modified version of the method published by [96]. The enzyme crude extract (25 μL) added to a solution included Tris-HCl, α-ketoglutarate, 2-mercaptoethanol, β-NAD, and GABA (50, 2, 20, and 3, respectively) at a volume of 1525 μL. […]

[10] = Rhynchophorus ferrugineus, 24 h, read-out: LC50

## O=C(/C=C/c1ccc(O)c(O)c1)O[C@H](Cc1ccc(O)c(O)c1)C(=O)O [Rosmarinic acid]
[1]
  LD50: 11.8 (11.2–12.5) µg/Larvae
AChE [2]
  IC50 AChE in vitro: 119.2 µg/mL and 119 ± 1.14 µg/mL
ALPs [3]
  IC50 ALP in vitro: 150 µg/mL (≈ 415 µM)
  IC50 ALPs in vitro: < 200 µg/mL
ALPs [4]
  IC50 ALPs in vivo: 256.7 µg/mL
ACPs [5]
  IC50 ACPs in vivo: < 330 µg/mL and 258.7 µg/mL
AChE [6]
  IC50 AChE in vivo: 235.1 µg/mL and 235 ± 1.14 µg/mL
R. ferrugineus adults; [10]
  LC50: 1430 µg/mL (≈ 3960 µM)
ACPs [7]
  IC50 ACPs in vitro: 139.7 µg/mL (≈ 388 µM)

## O=C(/C=C/c1ccc(O)c(O)c1/C=C/c1ccc(O)c(O)c1)O[C@H](Cc1ccc(O)c(O)c1)C(=O)O [Salvianolic acid A]
[1]
  LD50: 11.3 (10.2–12.47) µg/Larvae
[1]; listed as salvianolic acid A
  LD50: 11.3 µg/Larvae
AChE [2]
  IC50 AChE in vitro: 94 ± 0.94 µg/mL
AChE [2]; listed as salvianolic acid A
  IC50 AChE in vitro: 93.6 µg/mL
ALPs [3]
  IC50 ALP in vitro: 116 µg/mL (≈ 234 µM)
ALPs [3]; listed as salvianolic acid A
  IC50 ALPs in vitro: < 200 µg/mL
ALPs [4]
  IC50 ALPs in vivo: 213.8 µg/mL
ACPs [5]
  IC50 ACPs in vivo: < 330 µg/mL and 226.3 µg/mL
AChE [6]
  IC50 AChE in vivo: 178.2 µg/mL
R. ferrugineus adults; [10]
  LC50: 1260 µg/mL (≈ 2550 µM)
ACPs [7]; listed as salvianolic acid A
  IC50 ACPs in vitro: 112.2 µg/mL (≈ 227 µM)

## COc1ccc(-c2cc(=O)c3c(O)c(OC)c(OC)cc3o2)cc1 [Salvigenin]
[1]
  LD50: 10.8 (10.2–11.5) µg/Larvae
[1]; listed as salvigenin
  LD50: 10.8 µg/Larvae
AChE [2]
  IC50 AChE in vitro: 130 ± 1.23 µg/mL
AChE [2]; listed as salvigenin
  IC50 AChE in vitro: 129.7 µg/mL
ALPs [3]
  IC50 ALP in vitro: 123 µg/mL (≈ 374 µM)
ALPs [3]; listed as salvigenin
  IC50 ALPs in vitro: < 200 µg/mL
ALPs [4]; listed as salvigenin
  IC50 ALPs in vivo: 228.7 µg/mL
ACPs [5]; listed as salvigenin
  IC50 ACPs in vivo: < 330 µg/mL and 294.2 µg/mL
AChE [6]
  IC50 AChE in vivo: 258 ± 1.23 µg/mL
AChE [6]; listed as salvigenin
  IC50 AChE in vivo: 258.4 µg/mL
R. ferrugineus adults; [10]
  LC50: 1140 µg/mL (≈ 3480 µM)
ACPs [7]; listed as salvigenin
  IC50 ACPs in vitro: 151.2 µg/mL (≈ 461 µM)

## C[C@H]1[C@H](C)CC[C@]2(C(=O)O)CC[C@]3(C)C(=CC[C@@H]4[C@@]5(C)CC[C@H](O)C(C)(C)[C@@H]5CC[C@]43C)[C@H]12 [Ursolic acid]
[1]
  LD50: 14.9 (13.6–15.4) µg/Larvae
[1]; listed as ursolic acid
  LD50: 14.9 µg/Larvae
AChE [2]
  IC50 AChE in vitro: 170 ± 1.52 µg/mL
AChE [2]; listed as ursolic acid
  IC50 AChE in vitro: 169.5 µg/mL
ALPs [3]
  IC50 ALP in vitro: 141 µg/mL (≈ 309 µM)
ALPs [3]; listed as ursolic acid
  IC50 ALPs in vitro: < 200 µg/mL
ALPs [4]; listed as ursolic acid
  IC50 ALPs in vivo: 476.9 µg/mL
ACPs [5]; listed as ursolic acid
  IC50 ACPs in vivo: 392.4 µg/mL
AChE [6]
  IC50 AChE in vivo: 458 ± 1.52 µg/mL
AChE [6]; listed as ursolic acid
  IC50 AChE in vivo: 457.8 µg/mL
R. ferrugineus adults; [10]
  LC50: 1120 µg/mL (≈ 2450 µM)
ACPs [7]; listed as ursolic acid
  IC50 ACPs in vitro: 167.8 µg/mL (≈ 367 µM)

## Salvianolic acid B
[1]
  LD50: 11.1 (10.1–12.18) µg/Larvae
[1]; listed as salvianolic acid B
  LD50: 11.1 µg/Larvae
GABA-T [8]
  IC50 GABA-T in vivo: 324.8 µg/mL
AChE [2]
  IC50 AChE in vitro: 117 ± 1.08 µg/mL
AChE [2]; listed as salvianolic acid B
  IC50 AChE in vitro: 116.7 µg/mL
ALPs [3]
  IC50 ALP in vitro: 105 µg/mL
ALPs [3]; listed as salvianolic acid B
  IC50 ALPs in vitro: < 200 µg/mL
ALPs [4]
  IC50 ALPs in vivo: 194.6 µg/mL
ACPs [5]
  IC50 ACPs in vivo: < 330 µg/mL and 182.3 µg/mL
AChE [6]
  IC50 AChE in vivo: 229.7 µg/mL
R. ferrugineus adults
  LC50: 1195 (1121–1278) µg/mL
ACPs [7]; listed as salvianolic acid B
  IC50 ACPs in vitro: 98.2 µg/mL
GABA-T [9]
  IC50 GABA-T in vitro: 197.2 µg/mL
